Results on nine compounds are retold here after PubChem BioAssay (NCI).

SMILES strings stand for the structures. Values joined by “and” are separate entries in the source; they are usually repeats but may differ in a detail not shown here. Identical values can stand only once.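 Cells were grown in 96-well plates and exposed to each compound for 48 hours at five concentrations; endpoints were interpolated linearly between bracketing concentrations, or set to the highest concentration if not reached. Abbreviation: GI50, concentration required for 50% inhibition of growth. Definition used: TGI = concentration required for complete inhibition of growth.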

Holding throughout (test): DTP human tumour cell line panel, 48 h
In experiment [1] the test system is HS 578T breast.
The test system of experiment [2] is U251 CNS.
Experiment [3] concerns HT29 colon.
The test system of experiment [4] is SW-620 colon.
The test system of experiment [5] is OVCAR-5 ovarian.
Experiment [6] relates to KM12 colon.
In experiment [7] the test system is T-47D breast.
Experiment [8] deals with NCI-H226 lung.

Take `O=C(O)C(Cl)Cl`: the GI50 in experiment [1] is 3090 µM and > 10000 µM; in experiment [2], 7690 µM and > 10000 µM; in experiment [3], 7200 µM and > 10000 µM; in experiment [4], greater than 10000 µM; in experiment [5], greater than 10000 µM; in experiment [6] it was greater than 10000 µM. Besides, the GI50 was 4100 µM and > 10000 µM in experiment [7]; 8130 µM and > 10000 µM in experiment [8]. The TGI in experiment [1], in experiment [2], in experiment [3], in experiment [4], in experiment [5] and in experiment [6] was greater than 10000 µM each time. The TGI in experiment [7] and in experiment [8] was greater than 10000 µM each time.
Take `COC(=O)/C=C/c1cc(OC(C)=O)c2c(c1)[C@@H](C(=O)OC)[C@H](c1ccc(OC(C)=O)c(OC(C)=O)c1)O2`: the GI50 in experiment [1] was 0.0343 µM; in experiment [2], 0.114 µM; in experiment [3] it was 1.68 µM; in experiment [4], 0.0418 µM; in experiment [5], 0.95 µM; in experiment [6] it was 0.203 µM. For the same compound, the GI50 in experiment [7] was 0.452 µM; in experiment [8] it was 1.71 µM. In addition, the TGI in experiment [1] was 17.7 µM; in experiment [2], 41 µM; in experiment [3], greater than 58.7 µM; in experiment [4] it was greater than 100 µM; in experiment [5] it was greater than 100 µM; in experiment [6] it was 18.7 µM. In addition, the TGI is 67.3 µM in experiment [7] and 27.4 µM in experiment [8].
Turning to `NC(N)=NS(=O)(=O)c1ccc(N=Nc2c(O)c(C(=O)O)cc3ccccc23)cc1`, the TGI in experiment [1], in experiment [2], in experiment [3], in experiment [4], in experiment [5] and in experiment [6] was greater than 100 µM throughout. For the same compound, the TGI in experiment [7] and in experiment [8] was greater than 100 µM in each case.
Regarding `C/C=C/[C@@H]1O[C@@H]2COC(=O)C2=C[C@@H]1O`, the GI50 was 23.4 µM in experiment [1]; 18.9 µM in experiment [2]; 5.73 µM in experiment [3]; 2.13 µM in experiment [4]; 19.2 µM in experiment [5]; 20.5 µM in experiment [6]. In addition, the GI50 in experiment [7] is 6.31 µM; in experiment [8], 17.6 µM. The TGI in experiment [1] was 58.2 µM; in experiment [2], 38.3 µM; in experiment [3], 46 µM; in experiment [4], 5.07 µM; in experiment [5], 37.1 µM; in experiment [6] it was 53.2 µM. Besides, the TGI in experiment [7] was 24.2 µM; in experiment [8], 42 µM.
As for `O=C1c2c(F)c(F)c(F)c(F)c2C(=O)N1c1ccc(F)cc1F`, the GI50 was 35.5 µM in experiment [1]; 2.55 µM in experiment [2]; 7.36 µM in experiment [3]; 2.11 µM in experiment [4]; 12.6 µM in experiment [5]; 22.5 µM in experiment [6]. In addition, the results for the GI50 in experiment [7] and in experiment [8] were 19.7 µM and 17.2 µM, respectively. Moreover, the TGI is greater than 100 µM in experiment [1]; 7.95 µM in experiment [2]; greater than 100 µM in experiment [3]; 7.22 µM in experiment [4]; 26.5 µM in experiment [5]; 65.5 µM in experiment [6]. Also, the TGI was determined as 46.8 µM in experiment [7] and 50.8 µM in experiment [8].
As for `O=C1NC(=NCc2ccccc2)S/C1=C\c1ccc2ncccc2c1`, the GI50 in experiment [1], in experiment [2], in experiment [3], in experiment [4], in experiment [5] and in experiment [6] was greater than 25 µM in each case. Further, the GI50 in experiment [7] and in experiment [8] was greater than 25 µM in each case. The TGI in experiment [1], in experiment [2], in experiment [3], in experiment [4], in experiment [5] and in experiment [6] was greater than 25 µM throughout. Besides, the TGI in experiment [7] and in experiment [8] was greater than 25 µM in each case.
Take `COc1ccc(CN2C(=O)C(Cl)=C(Nc3cccc(C(F)(F)F)c3)C2=O)cc1`: the GI50 was 3.14 µM in experiment [1]; 2.75 µM in experiment [2]; 4.55 µM in experiment [3]; 3.61 µM in experiment [4]; 18 µM in experiment [5]; 7.83 µM in experiment [6]. For the same compound, the figures for the GI50 in experiment [7] and in experiment [8] were 3.88 µM and 2.57 µM, respectively. The TGI was 13.1 µM in experiment [1]; 17 µM in experiment [2]; 19.7 µM in experiment [3]; 15.7 µM in experiment [4]; 48.7 µM in experiment [5]; 25.6 µM in experiment [6]. Further, the TGI was found to be 21.5 µM in experiment [7] and 17.4 µM in experiment [8].
On to `O=C1OCC2=C1C(c1cccc(Br)c1)c1cc3c(cc1N2CCO)OCCO3` (centres undefined), for which the GI50 in experiment [1] was 0.0715 µM; in experiment [2] it was 0.0596 µM; in experiment [3], 0.0507 µM; in experiment [4], 0.0527 µM; in experiment [5], 0.221 µM; in experiment [6], 0.0442 µM. Moreover, the values for the GI50 in experiment [7] and in experiment [8] were 0.379 µM and 0.072 µM, respectively. The TGI was greater than 21.3 µM in experiment [1]; 6.07 µM in experiment [2]; 0.233 µM in experiment [3]; greater than 27.9 µM in experiment [4]; greater than 33.7 µM in experiment [5]; 2.31 µM in experiment [6]. In addition, the TGI in experiment [7] was greater than 41.3 µM; in experiment [8] it was 0.738 µM.
For `C=C1C[C@H](O)[C@H](Br)C(C)(C)[C@@]12CCC(C)=C(Cl)C2`, the GI50 in experiment [1] was 0.289 µM; in experiment [2] it was 0.367 µM; in experiment [3], 0.26 µM; in experiment [4] it was 0.625 µM; in experiment [5] it was 0.342 µM; in experiment [6], 0.311 µM. Also, in experiment [7], the GI50 is 0.15 µM. The total growth inhibition concentration (TGI) in experiment [1] is 2.98 µM; in experiment [2] it was 12.2 µM; in experiment [3], 1.45 µM; in experiment [4], 11.3 µM; in experiment [5], 8.87 µM; in experiment [6] it was 2.11 µM. The compound further came in with a TGI in experiment [7] of 11.3 µM.
